In the METLIN SMRT retention time set (Domingo-Almenara et al. 2019):

Assay: gradient 5% acetonitrile 3 min, to 50% in 2 min, to 85% in 15 min, held 3 min, 100 µL/min
Conditions: column: Zorbax Extend-C18 2.1 x 50 mm; eluents: water / acetonitrile, 0.1% formic acid
How it was run: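 Pure standards were analyzed in mixtures of ~100 molecules using HPLC coupled to a quadrupole time-of-flight mass spectrometer, in both positive and negative ionization mode. Separation used a Zorbax Extend-C18 column (2.1 × 50 mm, 1.8 μm) at 100 μL/min, with water and acetonitrile each containing 0.1% formic acid. Dead and dwell volumes were 40 μL and 900 μL, and data were collected over 3 months. Retention time was read from computationally picked adduct peaks, each inspected manually.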

| RP-LC retention time [s] | Structure (SMILES) |
| --- | --- |
| 820 | CCCn1cc(CCNS(=O)(=O)c2ccccc2F)c2cccnc21 |
| 1080 | Cc1cc(C)n2ncc(-c3ccc(C)c(S(=O)(=O)NCc4ccc(F)cc4Cl)c3)c2n1 |
| 1250 | COc1ccc(-c2noc(-c3nnn4c3COC(c3ccc(C)cc3C)C4)n2)cc1 (stereo not given) |
| 1010 | CCc1nn(CC)c(=O)c2cc(S(=O)(=O)NCc3ccc(F)c(Cl)c3)cn12 |
| 1070 | COC(=O)c1cc(C)nc2c1c(=O)n(Cc1ccccc1F)c(=O)n2Cc1ccco1 |
| 679 | COCCN1CCn2cc(S(=O)(=O)Nc3ccccc3OC)cc2C1=O |
| 710 | CCOC(=O)C1CCN(C(=O)CN2CCN(Cc3ccc(C)cc3)C(=O)C2=O)CC1 |
| 952 | CN1C(=O)COc2ccc(-c3csc(NC(=O)c4ccc(F)cc4)n3)cc21 |
| 744 | Clc1ccc(CCCOCCCN2CCCCC2)cc1 |
| 975 | CCc1ccc(CNC(=O)CN2C(=O)C3CCCCN3c3ccc(S(=O)(=O)N(C)C)cc32)cc1 (stereo not given) |
| 610 | CN(C)c1ccc(CNC(=O)CCCN2C(=O)CCn3nc(-c4cccn4C)cc32)cc1 |
| 1050 | C=CCN1C(=O)COc2ccc(-c3nc(NC(=O)c4cc(OC)c(OC)c(OC)c4)sc3C)cc21 |
| 1040 | Cc1c(-c2noc(-c3ccc(N(C)C)cc3)n2)nnn1-c1ccc(F)cc1 |
| 741 | O=C(NCC1CN(CC2CC2)CC12CCCCC2)Nc1cccc(Cl)c1 (stereo not given) |
| 701 | Cn1c(N)c(S(=O)(=O)N2CCN(c3ccccc3F)CC2)c(=O)n(C)c1=O |
| 880 | O=C(Cn1ccn2nc(-c3ccc(F)cc3)c(CO)c2c1=O)Nc1ccc(Cl)cc1 |
| 579 | Cn1c(N2CCCC(C(=O)NCC3CCN(Cc4ccccc4F)CC3)C2)cc(=O)n(C)c1=O (stereo not given) |
| 680 | O=C(O)c1nnn(-c2cccc(Cl)c2)c1-c1cccnc1 |
| 865 | COc1cc(OC)cc(N2C(=O)C3N=NN(Cc4nc(-c5ccc(OC)cc5OC)no4)C3C2=O)c1 (stereo not given) |
| 940 | COc1ccc(-c2nnc(Cc3nc(-c4ccc5c(c4)OCO5)no3)o2)cc1OC |
| 693 | CN1CCN(c2ccc(-c3cccc(NC(=O)c4ccccc4F)c3)nn2)CC1 |
| 845 | O=C(c1ccc2oc(=O)n(CC(=O)N3CCc4ccccc43)c2c1)N1CCCCC1 |

| RP-LC retention time [s] | Structure (SMILES) |
| --- | --- |
| 598 | O=C(NCCOc1ccc2nnc(-c3cccc(F)c3)n2n1)c1ccc(=O)[nH]n1 |
| 669 | COCC(=O)N1CCCn2nc(-c3ccccc3)cc2C1 |
| 564 | NCCNc1ccc(NCCN)c2c1C(=O)c1ccncc1C2=O |
| 805 | Cc1ccc(NC(=O)C2CC(=O)N(c3ccc4c(c3)CCN4C(=O)C3CC3)C2)c(C)c1 (stereo not given) |
| 1090 | N#Cc1ccc(NS(=O)(=O)c2cccc(-c3nc(-c4ccccc4)no3)c2)cc1 |
| 881 | COc1cc(OC)cc(-c2noc(-c3nn(-c4cccc(F)c4)ccc3=O)n2)c1 |
| 744 | CC(C)CCNC(=O)C1CCN(S(=O)(=O)c2ccc3c(c2)NC(=O)CO3)CC1 |
| 626 | COc1ccc(OC)c(S(=O)(=O)N2CCC(Cn3c(C)cnc3C)C2)c1 (stereo not given) |
| 655 | O=C(c1ccc(C(F)(F)F)cc1)N1CCN(c2nc(CN3CCOCC3)cs2)CC1 |
| 614 | Cc1nnsc1C(=O)N1CCC(C(=O)NCC(F)(F)F)CC1 |
| 882 | COc1ccc(Cl)cc1NC(=O)N1CCC2(CC1)N=C(c1cccc(F)c1)C(=O)N2 |
| 819 | Cc1ccc(C2Cn3cnc(C(=O)N4CCC(C(=O)NCCC5=CCCCC5)CC4)c3CO2)cc1 (stereo not given) |
| 1270 | Clc1ccc(CSc2nnc(-c3ccc(Br)cc3)o2)cc1 |
| 653 | COCCCNC(=O)CCc1c(C)n(C)c2nc(-c3ccccc3)nn2c1=O |
| 858 | COc1ccccc1CNC(=O)CN1CCN(Cc2ccc(F)cc2Cl)C1=O |
| 639 | CN1CCN(CCNC(=O)CCc2cn(-c3ccccc3)nc2-c2ccc3c(c2)OCO3)CC1 |
| 660 | CCCn1c(=O)sc2cc(S(=O)(=O)N3CCC(C(=O)Nc4ncccc4C)CC3)ccc21 |
| 741 | CCCNC(=O)C1CCCN(c2nc3ncn(CC(=O)Nc4ccc(Cl)cc4)c(=O)c3s2)C1 (stereo not given) |
| 1220 | Cc1ccccc1-c1noc(Cn2c(=O)n(CC(C)C)c(=O)c3ccccc32)n1 |
| 1030 | Cc1ccc2c(=O)c(S(=O)(=O)c3ccccc3)cn(Cc3cccc(Cl)c3)c2n1 |
| 727 | Cc1cccn2c(Nc3ccc4c(c3)OCCO4)c(-c3cccc(Cl)c3)nc12 |
| 614 | COc1cccc(NC(=O)N2CCN(c3nc4ccccc4n3Cc3ccccc3)CC2)c1 |

| RP-LC retention time [s] | Structure (SMILES) |
| --- | --- |
| 835 | O=C(Nc1ccccc1NC(=O)c1ccccc1C(F)(F)F)c1cccs1 |
| 1060 | O=C(Cn1nc(N2CCSCC2)c2ccccc2c1=O)Nc1ccc(Br)cc1F |
| 858 | CC1=C(c2ccc(C)cc2)S(=O)(=O)N=C1N1CCCN(C(=O)C(C)(C)C)CC1 |
| 799 | Cc1nnc(-c2cn(CC(=O)Nc3ccccc3F)c3ccccc23)o1 |
| 648 | CC(C)NC(=O)N1CCC(c2noc(-c3ccccn3)n2)C1 (stereo not given) |
| 562 | CN(C)CC1CN(C(=O)c2ccc3c(c2)OCO3)CC12CCOCC2 (stereo not given) |
| 846 | CC(C)NC(=O)c1nc2ccccn2c1-c1ccc(Cl)cc1 |
| 1080 | Cc1nc(CC(=O)Nc2nc(-c3ccc(OC(C)C)cc3)cs2)cs1 |
| 857 | O=C(C1=NN(CCc2ccccc2)c2ccccc2S1(=O)=O)N1CCCC1 |
| 722 | CCC(=O)NCc1csc(C2CCN(C(=O)c3ccc(Br)cc3)CC2)n1 |
| 767 | CCOc1ccc(C(=O)N2CCC3(CC2)NC(=O)c2cc(F)ccc2N3C)cc1 |
| 664 | O=C(c1ccc(Cl)s1)N1CCC(n2cnnc2C2CC2)CC1 |
| 997 | COc1ccc(-c2noc(Cc3nnc(-c4ccc(C)c(C)c4)o3)n2)cc1OC |
| 936 | O=C(c1ccc(Cl)cc1)N1CCN(c2cc(-c3ccc(Cl)cc3)[nH]n2)CC1 |
| 625 | COc1cccc(CNC(=O)c2nc(N3CCOCC3)c3c(C)cc(C)nc3n2)c1 |
| 583 | O=c1c2cnc3ncnn3c2ccn1C1CC1 |
| 923 | COc1cccc2sc(NC(=O)Cc3ccc(Cl)s3)nc12 |
| 695 | CCn1cc(S(=O)(=O)N2CCCCC2c2nc(-c3ccncc3)n[nH]2)cn1 (stereo not given) |
| 607 | CC(C)(O)CC[C@@H](O)[C@@](C)(O)[C@H]1CC[C@@]2(O)C3=CC(=O)[C@@H]4C[C@@H](O)[C@@H](O)C[C@]4(C)[C@H]3CC[C@]12C |
| 698 | CCOc1ccc(CNC(=O)Cc2cn(C)c3ncccc23)cc1 |
| 671 | CCN(CC)CCCC(C)NC(=O)c1ccc2c(c1)C(=O)c1ccccc1C2=O (stereo not given) |
